Among the data in PubChem BioAssay (NCI) are TGI and GI50 values, retold here.

Values joined by “and” are separate entries in the source; they are usually repeats but may differ in a detail not shown here. Equal entries are not always repeated.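 Grown in 96-well plates, cells were treated for 48 hours with each compound at five concentrations. Insufficient inhibition: endpoint recorded as highest concentration tested. GI50: concentration for 50% inhibition of growth. At the TGI there is no net growth.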

Holding throughout (experiment): inhibition of tumour cell growth, NCI panel, 48 h
The subject of test [1] is CAKI-1 renal.
Test [2] relates to NCI-H460 lung.
Test [3] relates to U251 CNS.
Test [4] has as its system HCT-116 colon.
In test [5] the test system is MOLT-4 leukemia.
Test [6] has as its system HCC-2998 colon.
The test system of test [7] is SK-OV-3 ovarian.
The test system of test [8] is SF-539 CNS.

Regarding `CCOCC(=O)N[C@H]1CCc2cc(OC)c(OC)c(OC)c2-c2ccc(OC)c(=O)cc21`, the TGI in test [1] is 30.1 µM; in test [2], above 16.7 µM; in test [3], 8.9 µM; in test [4], 10.7 µM; in test [5], above 52.7 µM; in test [6], 5.27 µM. Besides, the figures for the TGI in test [7] and in test [8] were 15 µM and 0.0328 µM, respectively.

As for `Cn1c2ccccc2c2ccc3c(c21)C(=O)c1ccccc1C3=O`, the TGI in test [1] is 67 µM; in test [3] it was 34.9 µM; in test [4], 40.6 µM; in test [6] it was above 100 µM; in test [7], 61.9 µM; in test [8] it was 41.2 µM.

For the compound `COCCCNC(=O)C1C(=O)C(=O)N(CCCOC)C1=O` (stereo unspecified), the TGI in test [1], in test [3], in test [4], in test [5], in test [6] and in test [7] was above 100 µM throughout. In test [8], this compound registered a TGI above 100 µM.

Take `O=C(O)CCNC1CCCCC1`: the GI50 in test [1], in test [2], in test [3], in test [4], in test [5] and in test [6] was above 100 µM throughout. Further, the GI50 in test [7] and in test [8] was above 100 µM each time. Moreover, the TGI in test [1], in test [2], in test [3], in test [4], in test [5] and in test [6] was above 100 µM each time. Further, the TGI in test [7] and in test [8] was above 100 µM each time.

Consider `O=C(CCN(C(=O)O)S(=O)(=O)c1ccc(NC(=O)c2ccccc2)cc1)NC1CCCCC1`, for which the TGI is above 100 µM in test [1]; above 100 µM in test [2]; above 100 µM in test [3]; above 100 µM in test [4]; 45.9 µM in test [5]; above 100 µM in test [6]. Besides, the TGI in test [7] and in test [8] was above 100 µM in each case.

On to `CCOC(=O)/C(=C\c1ccccc1)C(=O)O`, for which the TGI in test [1], in test [2], in test [3], in test [4], in test [5] and in test [6] was above 100 µM in each case. The TGI in test [7] and in test [8] was above 100 µM throughout.

`O=C(CC1(O)C(=O)Nc2ccccc21)c1ccncc1` (stereo unspecified): the TGI in test [1], in test [2], in test [3], in test [4], in test [5] and in test [6] was above 100 µM in each case. The TGI in test [7] and in test [8] was above 100 µM each time.

In the case of `Nc1cccc(S(=O)(=O)NCC(=O)O)c1`, the TGI in test [1], in test [2], in test [3], in test [4], in test [5] and in test [6] was above 100 µM in each case. Moreover, the TGI in test [7] and in test [8] was above 100 µM throughout.

On to `O=C1C(Cl)=C(NCCN2CCOCC2)C(=O)c2ncccc21`, for which the GI50 in test [1] was 1.92 µM; in test [2], 1.95 µM; in test [3], 1.87 µM; in test [5], 2.24 µM; in test [6] it was 1.73 µM; in test [7], 2.26 µM. Further, the TGI in test [1] is 3.72 µM; in test [2], 3.23 µM and 5.37 µM; in test [3], 3.12 µM and 3.3 µM; in test [4], 3.51 µM and 3.58 µM; in test [5], 4.01 µM and 5.27 µM; in test [6], 2.85 µM and 3.47 µM. For the same compound, the TGI is 3.36 µM and 7.23 µM in test [7]; 3.33 µM in test [8].

As for `Nc1nc2c(nnn2C2CC(O)C(CO)O2)c(=O)[nH]1` (stereo unspecified), the GI50 in test [1] is 2.3 µM; in test [2], 7.4 µM; in test [3], 9.66 µM; in test [4], 5.89 µM; in test [5], 2.61 µM; in test [6], 3.63 µM. Also, the GI50 was 0.937 µM in test [7] and 3.12 µM in test [8]. The TGI in test [1] is above 100 µM; in test [2] it was above 100 µM; in test [3] it was above 100 µM; in test [4] it was above 100 µM; in test [5], above 53 µM; in test [6], above 92 µM. Moreover, the TGI is above 23.4 µM in test [7] and above 41 µM in test [8].

Regarding `CS(=O)(=O)c1ccc(-n2nc(C(F)(F)F)cc2OC2CCCC2)cc1`, the GI50 in test [1] was 21.1 µM; in test [2], 27.8 µM; in test [3], 22.1 µM; in test [4], 34.5 µM; in test [5], 35.9 µM; in test [6], 27 µM. In addition, the figures for the GI50 in test [7] and in test [8] were 51.8 µM and 39.8 µM, respectively. Further, the TGI in test [1] was 54.4 µM; in test [2] it was above 100 µM; in test [3], 75 µM; in test [4] it was above 100 µM; in test [5], above 100 µM; in test [6], 73.5 µM. For the same compound, the TGI in test [7] and in test [8] was above 100 µM in each case.

Take `Cc1ccc(-c2nc3nc(-c4ccccc4)nc(N4CCCNCC4)c3o2)cc1`: the GI50 in test [1] is 1.73 µM; in test [2], 1.86 µM; in test [3], 1.54 µM; in test [4], 1.31 µM; in test [5], 1.44 µM; in test [6], 2.04 µM. In addition, the GI50 in test [7] was 1.81 µM; in test [8], 1.82 µM. The TGI is 3.22 µM in test [1]; 3.53 µM in test [2]; 2.91 µM in test [3]; 2.65 µM in test [4]; 3.15 µM in test [5]; 4.17 µM in test [6]. For the same compound, the results for the TGI in test [7] and in test [8] were 3.27 µM and 3.31 µM, respectively.
